Measured values from patent publication US5622933A, “Multiple branch peptide constructions for use against HIV” (priority 1993, dated 1997).
Read-outs that look alike come from different tables or passages of the source. Ends that are not written are not given here.

How the values were obtained:
HIV-1 (IIIB) = assay type: cell-based; conditions: for number of syncytia (HIV-1 induced cell fusion): 24 hours
From the text: 50×10^3 8E5 cells chronically infected with a RT-deficient HIV-I (IIIB) isolate, were co-cultivated with 150×10^3 phytohemagglutinin (PHA) stimulated human peripheral blood lymphocytes (PBLs) in the presence of the indicated peptide in 96-well plates. The MBPCs used are described by the peptides attached, and the number thereof, to a core lysine matrix, which is designated HLC. All amino acids used for this experiment were in dextro form.

[1] = test system: Peripheral blood lymphocytes (PBL); experiment: PBL antigen and mitogen induced proliferation ([3H]thymidine incorporation); assay type: cell-based, human; conditions: MBPCs 5×10^-6 M
Procedure: Peripheral blood lymphocytes (PBL) from 3 healthy HIV sero-negative donors were isolated from heparinized blood by the Ficoll-Hypaque technique. The culture medium was RPMI 1640 supplemented with 1% glutamine, 1% antibiotics and 10% heat inactivated fetal calf serum. Cells (10^5) were incubated in the presence of MBPCs (5×10^-6 M) with or without antigen (candidine, PPD) or mitogen (PHA). Antigen or mitogen treated cells were pulsed for eight hours with […] of [3H] thymidine. Then cells were harvested and [3H] thymidine incorporation in DNA was counted. […]

HIV-1 (89.6) = experiment: Infection of and syncytia formation in human primary macrophages; assay type: cell-based; conditions: 5×10^-5 M; for inhibition of macrophage infection, in words: 10,000 TCID50
Procedure: MBPCs were also evaluated for their ability to block the infection of human primary macrophages by a highly cytopathic macrophage-tropic isolate, HIV-1 (89.6). Mononuclear cells were isolated from leukophoresis units enriched for monocytes by Ficoll-Hypaque density separation. Macrophages were purified by adherence to plastic in RPMI 1640 supplemented with 10% fetal calf serum and 5% human AB serum. […] 5×10^5 cells were treated for 45 minutes with the indicated MBPC at concentrations of 5×10^-5 M and subsequently exposed to 10,000 TCID50 of the macrophage-tropic isolate HIV (89.6). […] After thorough washing, the cells were fed again with medium and analyzed for HIV-1 p24^gag production and syncytia formation 4 days post-infection.

HIV = experiment: Inhibition of syncytia formation induced by HIV (summary statements); assay type: cell-based
Procedure: (§1) CEM or C8166 cells were chronically infected with HIV-1 Lai or HIV-2 Rod, or HIV-1MN, respectively. Infected cells (1×10^4) were incubated for 2 hours with various concentrations of MBPCs in 96-well plates. Uninfected Molt-4 cells (4×10^4) were then added in […]. Syncytia were counted after 18 hours at 37° C.

HIV-1MN = experiment: Syncytia formation blockage (chronically infected cells + uninfected Molt-4 cells); assay type: cell-based; parameters: key: -: The presence of syncytia is indicated by + signs, allocated in approximate proportion to the quantities counted; The presence of syncytia is indicated by + signs, allocated in approximate proportion to the quantities counted; ++: The presence of syncytia is indicated by + signs, allocated in approximate proportion to the quantities counted; +++: The presence of syncytia is indicated by + signs, allocated in approximate proportion to the quantities counted; ++++: The presence of syncytia is indicated by + signs, allocated in approximate proportion to the quantities counted
Procedure: as §1

HIV-2Rod = experiment: as above; assay type: cell-based; parameters: key: -: The presence of syncytia is indicated by + signs, allocated in approximate proportion to the quantities counted; The presence of syncytia is indicated by + signs, allocated in approximate proportion to the quantities counted; ++: The presence of syncytia is indicated by + signs, allocated in approximate proportion to the quantities counted; +++: The presence of syncytia is indicated by + signs, allocated in approximate proportion to the quantities counted; ++++: The presence of syncytia is indicated by + signs, allocated in approximate proportion to the quantities counted
Procedure: as §1

HIV-1Lai = experiment: as above; assay type: cell-based; parameters: key: -: The presence of syncytia is indicated by + signs, allocated in approximate proportion to the quantities counted; The presence of syncytia is indicated by + signs, allocated in approximate proportion to the quantities counted; ++: The presence of syncytia is indicated by + signs, allocated in approximate proportion to the quantities counted; +++: The presence of syncytia is indicated by + signs, allocated in approximate proportion to the quantities counted; ++++: The presence of syncytia is indicated by + signs, allocated in approximate proportion to the quantities counted
Procedure: as §1

HIV-1 or HIV-2 = experiment: Infection of human PBLs (RT activity, p24gag); assay type: cell-based; conditions: MBPC 10^-5 M; days 10 and 13 after infection; culture supernatants
Procedure: Peripheral blood lymphocytes (PBLs) were obtained from healthy donors, stimulated with phytohemagglutinin, and cultivated in RPMI 1640 containing 10% fetal calf serum and interleukin-2 (complete medium). Samples of 6×10^6 cells/ml were either treated or not treated with the indicated MBPC at a concentration of 10^-5 M and exposed to HIV-1 or HIV-2 (100 TCID50) for 1 hour at 37° C. in the continued presence of MBPCs. After thorough washing, PBLs were cultured in complete medium with 10^-5 M of the corresponding MBPC. The state of infection was assessed by determination of RT activity (for both HIV-1 and HIV-2 isolates) and HIV-1 p24^gag measurements (Coulter kit, cut-off 10 pg/ml) in the case of HIV-1 isolates 10 days post-infection. The MBPC treatment used were as follows: 1-none; 2- [GPGRAF]8 -MLC; 3-[[…]]4 -MLC; 4- [[…]]4 -MLC (a non-HIV related MBPC) (MLC indicates a core lysine structure). The results shown in FIGS. 2A-2C are representative of three separate experiments. The nature of the viral isolates used was checked by PCR (HIV-1 versus HIV-2 isolates) and RIPA for discriminating between HIV-1 (LAI) and HIV-1 (NDK).

Row | Substance | number of syncytia (HIV-1 induced cell fusion) (HIV-1 (IIIB); 5 × 10^-6 M) | number of syncytia (HIV-1 induced cell fusion) (HIV-1 (IIIB); 5 × 10^-7 M) | [3H] Thymidine Incorporation ([1]; Donor 1, Cand1) [cpm] | [3H] Thymidine Incorporation ([1]; Donor 1, Cand2) [cpm] | [3H] Thymidine Incorporation ([1]; Donor 1, PPD1) [cpm] | [3H] Thymidine Incorporation ([1]; Donor 1, PPD2) [cpm] | [3H] Thymidine Incorporation ([1]; Donor 2, Cand1) [cpm] | [3H] Thymidine Incorporation ([1]; Donor 2, Cand2) [cpm] | [3H] Thymidine Incorporation ([1]; Donor 2, PHA1) [cpm] | [3H] Thymidine Incorporation ([1]; Donor 2, PHA2) [cpm] | [3H] Thymidine Incorporation ([1]; Donor 2, PPD1) [cpm] | [3H] Thymidine Incorporation ([1]; Donor 2, PPD2) [cpm] | [3H] Thymidine Incorporation ([1]; Donor 3, Cand1) [cpm] | [3H] Thymidine Incorporation ([1]; Donor 3, Cand2) [cpm] | [3H] Thymidine Incorporation ([1]; Donor 3, PHA1) [cpm] | [3H] Thymidine Incorporation ([1]; Donor 3, PHA2) [cpm] | [3H] Thymidine Incorporation ([1]; Donor 3, PPD1) [cpm] | [3H] Thymidine Incorporation ([1]; Donor 3, PPD2) [cpm] | inhibition of macrophage infection, in words (HIV-1 (89.6)) | Syncytia formation (HIV-1MN; MBPC Conc. 5 × 10^-6 M) | further results
1 | (GPGRAF)8 -(K)4 -(K)2 -K-βA-OH [MBPC.3] | - (- indicates the total absence of syncytia in the well) | ± | 87000 | 100000 | 1300 | 3100 | 17000 | 11000 | 87000 | 95000 | 24000 | 27000 | 3200 | 1200 | 162000 | 154000 | 3900 | 3100 | able to inhibit infection | - | number of syncytia (HIV-1 induced cell fusion) (HIV-1 (IIIB); 5 × 10^-5 M): - (- indicates the total absence of syncytia in the well); inhibition of syncytia formation, in words (HIV-1 (IIIB); 5×10^-7 M): marked inhibition of syncytia formation; giant cells (syncytia) in macrophage cultures (HIV-1 (89.6); pretreated, 4 days post-infection): very few giant cells; MBPC concentration with which inhibiting effect on syncytia formation was observed in vitro (HIV): around 10^-6 M; Syncytia formation (HIV-1MN; MBPC Conc. 10^-6 M): +; Syncytia formation (HIV-1MN; MBPC Conc. 10^-7 M): +++; Syncytia formation (HIV-2Rod; MBPC Conc. 5 × 10^-6 M): -; Syncytia formation (HIV-2Rod; MBPC Conc. 10^-6 M): -; Syncytia formation (HIV-2Rod; MBPC Conc. 10^-7 M): +; Syncytia formation (HIV-1Lai; MBPC Conc. 5 × 10^-6 M): -; Syncytia formation (HIV-1Lai; MBPC Conc. 10^-6 M): +; Syncytia formation (HIV-1Lai; MBPC Conc. 10^-7 M): ++++; RT activity lower in MBPCs-treated samples than control samples (HIV-1 or HIV-2): more than 90%
2 | (RKSIHIGPGRAFYT)4 -(K)2 -K-βA-OH (also: four copies on lysine core (K)2-K-βA-OH) [MBPC.5, tetradecapeptide MBPC] | - (- indicates the total absence of syncytia in the well) | +++ | 80000 | 85000 | 1300 | 2100 | 15000 | 9000 | 115000 | 111000 | 24000 | 26000 | 3700 | 1100 | 228000 | 188000 | 4000 | 2400 | able to inhibit infection | - | inhibition of syncytia formation, in words (HIV-1 (IIIB); 5×10^-6 M): able to inhibit syncytia formation; inhibiting effect on syncytia formation, in words (HIV): inhibiting effect at a slightly higher concentration; Syncytia formation (HIV-1MN; MBPC Conc. 10^-6 M): ++; Syncytia formation (HIV-1MN; MBPC Conc. 10^-7 M): ++++; Syncytia formation (HIV-2Rod; MBPC Conc. 5 × 10^-6 M): -; Syncytia formation (HIV-2Rod; MBPC Conc. 10^-6 M): -; Syncytia formation (HIV-2Rod; MBPC Conc. 10^-7 M): +; Syncytia formation (HIV-1Lai; MBPC Conc. 5 × 10^-6 M): -; Syncytia formation (HIV-1Lai; MBPC Conc. 10^-6 M): +; Syncytia formation (HIV-1Lai; MBPC Conc. 10^-7 M): ++++; RT activity lower in MBPCs-treated samples than control samples (HIV-1 or HIV-2): more than 90%
